# According to patent publication US20240318218A1 (The Trustees of Columbia University in The City of New York, priority 2023, published 2024):
# Molecular target: T1, human NADK (ATP-NAD+ kinase), recombinant, C-terminal 6x-histidine tag (Homo sapiens, UniProt O95544)
# T1 construct: 6x-histidine (C); made in house; host or cells: E. coli BL21(DE3)
# T1 sequence (O95544 1-446): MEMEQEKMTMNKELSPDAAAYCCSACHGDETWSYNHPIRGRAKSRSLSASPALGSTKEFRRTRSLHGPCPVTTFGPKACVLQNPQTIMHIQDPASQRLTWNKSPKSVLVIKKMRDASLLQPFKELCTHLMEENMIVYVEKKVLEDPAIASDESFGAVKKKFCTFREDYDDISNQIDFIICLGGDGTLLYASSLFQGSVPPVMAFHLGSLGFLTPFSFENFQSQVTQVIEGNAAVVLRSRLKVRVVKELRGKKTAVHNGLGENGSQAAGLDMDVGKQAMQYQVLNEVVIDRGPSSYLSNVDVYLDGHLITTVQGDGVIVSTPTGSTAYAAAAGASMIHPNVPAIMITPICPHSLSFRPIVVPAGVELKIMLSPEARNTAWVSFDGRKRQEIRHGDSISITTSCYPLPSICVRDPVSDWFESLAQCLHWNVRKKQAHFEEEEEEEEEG
# Assay: Affinity of human NADK for NAD+ compared with pigeon, duck and cat NADK
# Assay type: biochemical
# Conditions: human NADK relative to pigeon
# Method: Recombinantly-expressed NADKs were explored for their reversible activities. It was hypothesized that the reversibility of the pigeon enzyme would enable compensation for the high picolinic acid […] (PC) activity present in pigeon livers, which inhibits NAD^+ biosynthesis from dietary tryptophan. […] It was determined that human NADK has an affinity for NAD^+ that is about 600 times higher than the pigeon, duck and cat isoforms. Without wishing to be bound by theory, NAD^+ serves as a product inhibitor for the reverse human NADK activity, which accounts for the observed irreversible behavior. While each of the NADKs explored were “reversible,” the reverse activity of the human enzyme is impeded via product inhibition. […]
# Referring now to FIGS. 3A-3B, initial rate kinetic experiments were performed with pigeon, duck, cat, and human NADK enzymes in both the forward and reverse directions. […] In FIG. 3B, the production of ATP was detected in a coupled reaction with firefly luciferase where ATP was converted to light, the relative luminescence (RLU) was monitored, and a standard curve was used to calculate the ATP concentration.
compound,measurement,value
NC(=O)c1ccc[n+]([C@@H]2O[C@H](COP(=O)([O-])OP(=O)(O)OC[C@H]3O[C@@H](n4cnc5c(N)ncnc54)[C@H](O)[C@@H]3O)[C@@H](O)[C@H]2O)c1 [NAD],"affinity for NAD^+, times higher than the pigeon, duck and cat isoforms",about 600 times
